# Test results published in patent US12421253B2 (Mirati Therapeutics, Inc., priority 2020, dated 2025).
# Assays:
# KRas^G12D = target: T1, KRas^G12D (Homo sapiens, UniProt P01116, G12D); test: KRas binding assay (TR-FRET displacement of Cy5 labelled tracer)
# T1 construct: […]; biotin (biotinylated); purchased Accelegan Inc
# Procedure: (§4) The ability of a compound to bind to KRas was measured using a TR-FRET displacement assay. […] After a 60-minute incubation at room temperature, the reaction was measured using a BMG LABTECH CLARIO star Plus via TR-FRET. […] The POC values were fit to a 4-parameter IC50 equation and the IC50 value reported.
# KRas^G12V = target: T2, KRas^G12V (Homo sapiens, UniProt P01116, G12V); test: as above
# T2 construct: […]; biotin (biotinylated); purchased Accelegan Inc
# Procedure: as §4
# MKN1 cells, pERK = test: Inhibition of KRas phosphorylation of ERK (Cisbio HTRF Advanced pERK assay); assay type: cell-based; conditions: Homo sapiens, MKN-1, 3 h, read-out: Inhibition (HTRF IC50 nM) of KRas-mediated Phosphorylation of ERK, MKN1
# Procedure: (§1) Inhibition of KRas Phosphorylation of ERK (HTRF) by Exemplary Compounds of Formula (I)
# (§2) Cisbio HTRF Advanced pERK Assay Catalog #64AERPEH
# (§3) • Day 1: Seed 6,000 cells/well −25 μl/well in 384-well white solid bottom plate; RPM1_10% FBS. […] To harvest cells from flask using 0.05% Trypsin/EDTA solution. Add 10 mL of media to stop trypsinizing. Pipette the cells into a conical bottom 50 mL centrifuge tube and centrifuge 5 min×1000 rpm. • 2. Re-suspend the cell pellet in media, take a cell count, and then adjust the cell density using fresh media. • 3. Seed 6,000 cells into cell culture plate with […]. The • 4. Incubate cell plate overnight in a 37° C., 5% CO2 incubator. Compound Titrations • 1. Use Tecan to complete the compound addition. Compounds start from 10 uM top, 3-fold dilution, and 10 doses. The final DMSO concentration is 0.8%. Dispensed 0.2 uM Trametinib as Min control. • 2. Incubate cell plate for 3 hrs in the incubator. Detection with Cisbio pERK HTRF Kit • 1. Dilute 1 volume of 4× lysis buffer with 3 volumes of deionized water. Then, add 100× the blocking reagent. Keep lysis buffer on the ice. • 2. At the end of the compound treatment, flick-off the media. • 3. Add 35 μL of lysis buffer per well using a Multidrop Combi. Then place on a plate agitator shaking at 300 rpm at 4° C. for 40 mins. • 4. Make up the HTRF antibody buffer. For each assay plate, mix 50 μL of d2-conjugate antibody with 950 μL of detection buffer. Similarly, mix 50 μL of Cryptate antibody with 950 μL of detection buffer. Then mix the two diluted antibodies together. • 5. Dispense 3.4 μL the antibody buffer to wells of an empty assay plate. Seal the plate and centrifuge plate 30 sec×1000 rpm. • 6. At the end of the 4° C. lysis, centrifuge the lysate plates 3 mins×1500 rpm. • 7. Use the Bravo to transfer 13.6 μL of lysate from cell culture plate to assay plate. Then incubate assay plate for 2 hrs at room temperature. • 8. At the end of incubation, read plate on the Envision after centrifuging plate 30 sec×1000 rpm.
# H727 cells, pERK = test: as above; assay type: cell-based; conditions: Homo sapiens, NCI-H727, 3 h, read-out: Inhibition (HTRF IC50 nM) of KRas-mediated Phosphorylation of ERK, H727
# Procedure: as §1, §2, §3
# ASPC1 cells, pERK = test: as above; assay type: cell-based; conditions: Homo sapiens, ASPC1, 3 h, AsPC-1 cells, read-out: Inhibition (HTRF IC50 nM) of KRas-mediated Phosphorylation of ERK, AsPC-1
# Procedure: as §1, §2, §3
# PSN1 cells, pERK = test: as above; assay type: cell-based; conditions: Homo sapiens, PSN1, 3 h, read-out: Inhibition (HTRF IC50 nM) of KRas-mediated Phosphorylation of ERK, PSN1
# Procedure: as §1, §2, §3
# KRas^G12R = target: T3, KRas^G12R (Homo sapiens, UniProt P01116, G12R); test: KRas binding assay (TR-FRET displacement of Cy5 labelled tracer)
# T3 construct: […]; biotin (biotinylated); purchased Accelegan Inc
# T3 sequence (P01116 1-169 isoform P01116-2 G12R): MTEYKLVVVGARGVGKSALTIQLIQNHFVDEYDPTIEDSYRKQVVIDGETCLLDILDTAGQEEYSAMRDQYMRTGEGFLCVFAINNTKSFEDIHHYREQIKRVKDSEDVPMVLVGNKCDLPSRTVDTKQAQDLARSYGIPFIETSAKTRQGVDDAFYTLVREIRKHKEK
# Procedure: as §4
# T1 sequence (P01116 1-169 isoform P01116-2 G12D): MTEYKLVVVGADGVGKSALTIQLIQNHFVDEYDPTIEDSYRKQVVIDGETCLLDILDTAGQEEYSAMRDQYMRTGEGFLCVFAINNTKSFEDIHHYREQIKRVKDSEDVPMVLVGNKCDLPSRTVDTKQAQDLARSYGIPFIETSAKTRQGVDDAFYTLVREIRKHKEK
# T2 sequence (P01116 1-169 isoform P01116-2 G12V): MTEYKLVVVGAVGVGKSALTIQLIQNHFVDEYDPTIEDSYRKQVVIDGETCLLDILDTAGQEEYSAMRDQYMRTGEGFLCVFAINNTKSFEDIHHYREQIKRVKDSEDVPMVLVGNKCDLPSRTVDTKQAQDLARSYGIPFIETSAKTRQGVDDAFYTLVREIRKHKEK
structure (smiles),measurement,setting,value
"CCc1c(F)ccc2cc(O)cc(N3CCc4c(nc(OC[C@@]56CCCN5C[C@H](F)C6)nc4N4C[C@H]5C[C@H](O)C[C@H]5C4)C3)c12 [Example 183, (3aR,5R,6aS)-2-(7-(8-ethyl-7-fluoro-3-hydroxynaphthalen-1-yl)-2-(((2R,7aS)-2-fluorohexahydro-1H-pyrrolizin-7a-yl)methoxy)-5,6,7,8-tetrahydropyrido[3,4-d]pyrimidin-4-yl)octahydrocyclopenta[c]pyrrol-5-ol]",IC50,KRas^G12D,150 nM
same,IC50,KRas^G12V,54 nM
same,IC50,"MKN1 cells, pERK",498 nM
same,IC50,"H727 cells, pERK",2920 nM
same,IC50,"ASPC1 cells, pERK",1540 nM
same,IC50,"PSN1 cells, pERK",≥ 10000 nM
same,IC50,KRas^G12R,23 nM
"CCc1c(F)ccc2cc(O)cc(N3CCc4c(nc(OC[C@@]56CCCN5C[C@H](F)C6)nc4N4C[C@H]5C[C@@H](O)C[C@H]5C4)C3)c12 [Example 184, (3aR,5S,6aS)-2-(7-(8-ethyl-7-fluoro-3-hydroxynaphthalen-1-yl)-2-(((2R,7aS)-2-fluorohexahydro-1H-pyrrolizin-7a-yl)methoxy)-5,6,7,8-tetrahydropyrido[3,4-d]pyrimidin-4-yl)octahydrocyclopenta[c]pyrrol-5-ol]",IC50,KRas^G12D,23 nM
same,IC50,KRas^G12V,12 nM
same,IC50,"MKN1 cells, pERK",652 nM
same,IC50,"H727 cells, pERK",796 nM
same,IC50,"ASPC1 cells, pERK",770 nM
same,IC50,"PSN1 cells, pERK",≥ 10000 nM
same,IC50,KRas^G12R,11 nM
"CCc1c(F)ccc2cc(O)cc(N3CCc4c(nc(OC[C@@]56CCCN5C[C@H](F)C6)nc4N4C[C@H]5CC[C@@H](O)[C@H]5C4)C3)c12 [Example 185, (3aR,4R,6aS)-2-(7-(8-ethyl-7-fluoro-3-hydroxynaphthalen-1-yl)-2-(((2R,7aS)-2-fluorotetrahydro-1H-pyrrolizin-7a(5H)-yl)methoxy)-5,6,7,8-tetrahydropyrido[3,4-d]pyrimidin-4-yl)octahydrocyclopenta[c]pyrrol-4-ol]",IC50,KRas^G12D,143 nM
same,IC50,KRas^G12V,52 nM
same,IC50,"MKN1 cells, pERK",1540 nM
same,IC50,"H727 cells, pERK",3720 nM
same,IC50,"ASPC1 cells, pERK",5120 nM
same,IC50,"PSN1 cells, pERK",≥ 10000 nM
same,IC50,KRas^G12R,46 nM
"CCc1c(F)ccc2cc(O)cc(N3CCc4c(nc(OC[C@@]56CCCN5C[C@H](F)C6)nc4N4CCCn5nc(C(=O)N(C)C)c(Cl)c5C4)C3)c12 [Example 192, 3-chloro-5-(7-(8-ethyl-7-fluoro-3-hydroxynaphthalen-1-yl)-2-(((2R,7aS)-2-fluorotetrahydro-1H-pyrrolizin-7a(5H)-yl)methoxy)-5,6,7,8-tetrahydropyrido[3,4-d]pyrimidin-4-yl)-N,N-dimethyl-5,6,7,8-tetrahydro-4H-pyrazolo[1,5-a][1,4]diazepine-2-carboxamide]",IC50,KRas^G12D,≤ 2 nM
same,IC50,KRas^G12V,≤ 2 nM
same,IC50,"MKN1 cells, pERK",11 nM
same,IC50,"H727 cells, pERK",29 nM
same,IC50,"ASPC1 cells, pERK",24 nM
same,IC50,"PSN1 cells, pERK",≥ 10000 nM
same,IC50,KRas^G12R,3 nM
"CCc1c(F)ccc2cc(O)cc(N3CCc4c(nc(OC[C@@]56CCCN5C[C@H](F)C6)nc4N4CCCc5nn(C(=O)NC(C)C)cc5C4)C3)c12 [Example 195, 5-(7-(8-ethyl-7-fluoro-3-hydroxynaphthalen-1-yl)-2-(((2R,7aS)-2-fluorohexahydro-1H-pyrrolizin-7a-yl)methoxy)-5,6,7,8-tetrahydropyrido[3,4-d]pyrimidin-4-yl)-N-isopropyl-5,6,7,8-tetrahydropyrazolo[4,3-c]azepine-2(4H)-carboxamide]",IC50,KRas^G12D,17 nM
same,IC50,KRas^G12V,8 nM
same,IC50,"MKN1 cells, pERK",1520 nM
same,IC50,"H727 cells, pERK",373 nM
same,IC50,"ASPC1 cells, pERK",1110 nM
same,IC50,"PSN1 cells, pERK",≥ 10000 nM
same,IC50,KRas^G12R,20 nM
"CCc1c(F)ccc2cc(O)cc(N3CCc4c(nc(OCC5(CN(C)C)CC5)nc4N4CCCC5(CNS(=O)(=O)N5)C4)C3)c12 (stereo not drawn) [Example 202, 7-(2-((1-((dimethylamino)methyl)cyclopropyl)methoxy)-7-(8-ethyl-7-fluoro-3-hydroxynaphthalen-1-yl)-5,6,7,8-tetrahydropyrido[3,4-d]pyrimidin-4-yl)-2-thia-1,3,7-triazaspiro[4.5]decane 2,2-dioxide]",IC50,KRas^G12D,≤ 2 nM
same,IC50,KRas^G12V,≤ 2 nM
same,IC50,"MKN1 cells, pERK",101 nM
same,IC50,"H727 cells, pERK",1350 nM
same,IC50,"ASPC1 cells, pERK",543 nM
same,IC50,"PSN1 cells, pERK",3900 nM
same,IC50,KRas^G12R,7 nM
